Results on 16 compounds are retold here after PubChem BioAssay AID248 (DTP/NCI, 2004).

The structures appear in SMILES notation. Values joined by “and” are separate entries in the source; they are usually repeats but may differ in a detail not shown here. Equal entries are not always repeated. Inconclusive results and toxic doses are left out.

The experiment relates to L1210 leukemia ip in BDF1 mice, survival T/C. The experiment can be described thus: NCI In Vivo Anticancer Drug Screen. Data for tumor model L1210 Leukemia (intraperitoneal) in B6D2F1 (BDF1) mice. Conditions: endpoint: mean survival time, higher = longer survival. An outline of the steps: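 Survival endpoint. Drug-treated group vs vehicle group, expressed as T divided by C. Tumor passaged by transplantation.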

The mark [1] stands for this setting: dose: 100.0 mg/kg/injection, schedule: Q04DX002 (ip), vehicle: Klucel (hydroxypropylcellulose) (HPC).
The mark [2] stands for this setting: dose: 100.0 mg/kg/injection, schedule: Q01DX009 (ip), vehicle: saline.
Where [3] appears, read: dose: 200.0 mg/kg/injection, schedule: Q01DX009 (ip), vehicle: saline.
Setting [4] is: dose: 400.0 mg/kg/injection, schedule: Q01DX009 (ip), vehicle: saline.
Setting [5] is: dose: 100.0 mg/kg/injection, schedule: Q04DX003 (ip), vehicle: Klucel (hydroxypropylcellulose) (HPC).
[6] abbreviates: dose: 200.0 mg/kg/injection, schedule: Q04DX003 (ip), vehicle: Klucel (hydroxypropylcellulose) (HPC).
Where [7] appears, read: dose: 400.0 mg/kg/injection, schedule: Q04DX003 (ip), vehicle: Klucel (hydroxypropylcellulose) (HPC).
[8] abbreviates: dose: 50.0 mg/kg/injection, schedule: Q01DX001 (ip), vehicle: saline.
Where [9] appears, read: dose: 100.0 mg/kg/injection, schedule: Q01DX001 (ip), vehicle: saline.
[10] abbreviates: dose: 100.0 mg/kg/injection, schedule: Q01DX009 (ip), vehicle: Klucel (hydroxypropylcellulose) (HPC).
Where [11] appears, read: dose: 200.0 mg/kg/injection, schedule: Q01DX009 (ip), vehicle: Klucel (hydroxypropylcellulose) (HPC).
Where [12] appears, read: dose: 400.0 mg/kg/injection, schedule: Q01DX009 (ip), vehicle: Klucel (hydroxypropylcellulose) (HPC).
Where [13] appears, read: dose: 100.0 mg/kg/injection, schedule: Q01DX009 (ip), vehicle: saline with Tween-80.
Setting [14] is: dose: 200.0 mg/kg/injection, schedule: Q01DX001 (ip), vehicle: saline.

Regarding `CC(SS(=O)(=O)O)C(N)=NCc1ccccc1` (centres undefined), the T/C reads like this: (dose: 25.0 mg/kg/injection, schedule: Q04DX002 (ip), vehicle: Klucel (hydroxypropylcellulose) (HPC)) 94 % of control; (dose: 50.0 mg/kg/injection, schedule: Q04DX002 (ip), vehicle: Klucel (hydroxypropylcellulose) (HPC)) 108 % of control; under setting [1], 98 % of control.

As to `CNc1ccccc1CCc1ccccc1CO`, the T/C (dose: 400.0 mg/kg/injection, schedule: Q04DX002 (ip), vehicle: Klucel (hydroxypropylcellulose) (HPC)) is 89 % of control.

As to `CCCCCCOC(=O)/C=C(/C)OCCCCCC`, the T/C runs as follows: under setting [2], 97 % of control; (dose: 100.0 mg/kg/injection, schedule: Q04DX003 (ip), vehicle: saline) 94 % of control; under setting [3], 95 % of control; (dose: 200.0 mg/kg/injection, schedule: Q04DX003 (ip), vehicle: saline) 96 % of control; under setting [4], 92 % of control.

Consider `Nc1ccc(Nc2ccccc2)cc1`, for which the T/C under setting [1] is 100 % of control and the T/C (dose: 200.0 mg/kg/injection, schedule: Q04DX002 (ip), vehicle: Klucel (hydroxypropylcellulose) (HPC)) is 104 % of control.

Consider `CC(c1ccccc1)C1N(c2ccccc2)CCN1c1ccccc1` (centres undefined), for which the T/C is 94 % of control under setting [5], 100 % of control under setting [6] and 102 % of control under setting [7].

With `O=C(NP(=O)(N1CC1)N1CC1)OCc1ccccc1`, the T/C by setting is: (dose: 3.0 mg/kg/injection, schedule: Q01DX Z (ip), vehicle: saline) 118 % of control and 122 % of control; (dose: 3.13 mg/kg/injection, schedule: Q01DX006 (iv), vehicle: clinical formulation) 118 % of control; (dose: 3.13 mg/kg/injection, schedule: Q01DX009 (ip), vehicle: saline) 118 % of control and 120 % of control; (dose: 6.0 mg/kg/injection, schedule: Q01DX Z (ip), vehicle: saline) 104 % of control; (dose: 6.25 mg/kg/injection, schedule: Q01DX006 (iv), vehicle: clinical formulation) 115 % of control; (dose: 6.25 mg/kg/injection, schedule: Q01DX009 (ip), vehicle: saline) 109 % of control and 121 % of control. Further, the T/C is 117 % of control (dose: 10.0 mg/kg/injection, schedule: Q01DX006 (iv), vehicle: saline); 196 % of control (dose: 12.0 mg/kg/injection, schedule: Q01DX Z (ip), vehicle: saline); 93 % of control (dose: 12.5 mg/kg/injection, schedule: Q01DX001 (ip), vehicle: saline); 120 % of control (dose: 12.5 mg/kg/injection, schedule: Q01DX006 (iv), vehicle: clinical formulation); 97 % of control and 114 % of control (dose: 12.5 mg/kg/injection, schedule: Q01DX009 (ip), vehicle: saline); 117 % of control (dose: 20.0 mg/kg/injection, schedule: Q01DX006 (iv), vehicle: saline). Further, the T/C (dose: 25.0 mg/kg/injection, schedule: Q01DX001 (ip), vehicle: saline) was 93 % of control; the T/C (dose: 25.0 mg/kg/injection, schedule: Q01DX009 (ip), vehicle: saline) was 101 % of control and 109 % of control; the T/C (dose: 48.0 mg/kg/injection, schedule: Q01DX Z (ip), vehicle: saline) was 123 % of control; the T/C under setting [8] was 103 % of control; the T/C (dose: 50.0 mg/kg/injection, schedule: Q01DX006 (iv), vehicle: clinical formulation) was 153 % of control; the T/C (dose: 50.0 mg/kg/injection, schedule: Q01DX009 (ip), vehicle: saline) is 124 % of control. Also, the T/C by setting is: (dose: 50.0 mg/kg/injection, schedule: Q01DX010 (oral), vehicle: saline) 100 % of control; (dose: 80.0 mg/kg/injection, schedule: Q01DX006 (iv), vehicle: saline) 156 % of control; under setting [9], 98 % of control; (dose: 100.0 mg/kg/injection, schedule: Q01DX010 (oral), vehicle: saline) 111 % of control; (dose: 200.0 mg/kg/injection, schedule: Q01DX010 (oral), vehicle: saline) 105 % of control; (dose: 400.0 mg/kg/injection, schedule: Q01DX010 (oral), vehicle: saline) 106 % of control.

In the case of `CCOC(=O)c1cnc(SC)nc1Nc1ccccc1[N+](=O)[O-]`, the T/C is 96 % of control (dose: 25.0 mg/kg/injection, schedule: Q01DX001 (ip), vehicle: Klucel (hydroxypropylcellulose) (HPC)); 96 % of control (dose: 50.0 mg/kg/injection, schedule: Q01DX001 (ip), vehicle: Klucel (hydroxypropylcellulose) (HPC)); 100 % of control (dose: 100.0 mg/kg/injection, schedule: Q01DX001 (ip), vehicle: Klucel (hydroxypropylcellulose) (HPC)); 94 % of control under setting [10]; 88 % of control (dose: 200.0 mg/kg/injection, schedule: Q01DX001 (ip), vehicle: Klucel (hydroxypropylcellulose) (HPC)); 94 % of control under setting [11]. The T/C runs as follows: (dose: 400.0 mg/kg/injection, schedule: Q01DX001 (ip), vehicle: Klucel (hydroxypropylcellulose) (HPC)) 88 % of control; under setting [12], 89 % of control.

For the compound `COC(=O)C(CSCSC)NC(=O)/C=C/c1ccco1` (centres undefined), the T/C (dose: 25.0 mg/kg/injection, schedule: Q01DX009 (ip), vehicle: saline with Tween-80) is 107 % of control; the T/C (dose: 50.0 mg/kg/injection, schedule: Q01DX009 (ip), vehicle: saline with Tween-80) is 107 % of control; the T/C under setting [13] was 102 % of control and 91 % of control; the T/C (dose: 100.0 mg/kg/injection, schedule: Q04DX003 (ip), vehicle: saline with Tween-80) is 93 % of control; the T/C (dose: 200.0 mg/kg/injection, schedule: Q04DX003 (ip), vehicle: saline with Tween-80) is 101 % of control; the T/C (dose: 400.0 mg/kg/injection, schedule: Q04DX003 (ip), vehicle: saline with Tween-80) was 95 % of control.

In the case of `O=C(CCCC(=O)NNC(=O)Nc1cccc(S(=O)(=O)F)c1)NNC(=O)Nc1cccc(S(=O)(=O)F)c1`, the T/C was 106 % of control under setting [8]; 112 % of control under setting [9]; 96 % of control under setting [14]; 112 % of control (dose: 400.0 mg/kg/injection, schedule: Q01DX001 (ip), vehicle: saline).

In the case of `CC(=O)Nc1cc(C)c(C=O)cc1C`, the T/C is, setting by setting: (dose: 100.0 mg/kg/injection, schedule: Q01DX001 (ip), vehicle: carboxymethylcellulose (CMC)) 88 % of control; (dose: 200.0 mg/kg/injection, schedule: Q01DX001 (ip), vehicle: carboxymethylcellulose (CMC)) 108 % of control; (dose: 400.0 mg/kg/injection, schedule: Q01DX001 (ip), vehicle: carboxymethylcellulose (CMC)) 92 % of control.

For the compound `COC(=N)C/C=C/CC(=N)OC`, the T/C was 94 % of control under setting [2], 94 % of control under setting [3] and 92 % of control under setting [4].

`CCc1cccc(CC)c1NC(=O)Nc1ccccc1F`: the T/C is, setting by setting: (dose: 100.0 mg/kg/injection, schedule: Q01DX009 (ip), vehicle: other) 91 % of control; (dose: 200.0 mg/kg/injection, schedule: Q01DX009 (ip), vehicle: other) 102 % of control; (dose: 400.0 mg/kg/injection, schedule: Q01DX009 (ip), vehicle: other) 105 % of control.

For the compound `Cc1ccc(Oc2c3c(nc4ccccc24)CCCC3)cc1`, the T/C by setting is: under setting [10], 104 % of control; under setting [5], 101 % of control; under setting [11], 98 % of control; under setting [6], 96 % of control; under setting [12], 96 % of control; under setting [7], 93 % of control.

Regarding `CCCCNC(=O)CCl`, the T/C under setting [9] was 96 % of control and the T/C under setting [14] is 113 % of control.

Consider `O=C(N1CCC2(CC1)SSC1(CCN(C(=O)C(F)(F)F)CC1)S2)C(F)(F)F`, for which the T/C is 97 % of control under setting [13]; 97 % of control (dose: 200.0 mg/kg/injection, schedule: Q01DX009 (ip), vehicle: saline with Tween-80); 95 % of control (dose: 400.0 mg/kg/injection, schedule: Q01DX009 (ip), vehicle: saline with Tween-80).

Consider `CC(O)C(Cl)(Cl)Cl` (centres undefined), for which the T/C was 100 % of control (dose: 75.0 mg/kg/injection, schedule: Q01DX001 (ip), vehicle: carboxymethylcellulose (CMC)); 98 % of control (dose: 150.0 mg/kg/injection, schedule: Q01DX001 (ip), vehicle: carboxymethylcellulose (CMC)); 106 % of control (dose: 300.0 mg/kg/injection, schedule: Q01DX001 (ip), vehicle: carboxymethylcellulose (CMC)).
